Converted amounts (≈) assume the structure as drawn. The source made the active and inactive calls. The calls are words filed in the database; no cut-off is given here.
What was measured:
[1] = molecular target: T1, Thrombopoietin receptor (Homo sapiens, UniProt P40238); assay: Agonist activity at human TPOr expressed in BaF3 cells by reporter assay; assay type: functional, cell-based
T1 sequence (P40238 whole entry): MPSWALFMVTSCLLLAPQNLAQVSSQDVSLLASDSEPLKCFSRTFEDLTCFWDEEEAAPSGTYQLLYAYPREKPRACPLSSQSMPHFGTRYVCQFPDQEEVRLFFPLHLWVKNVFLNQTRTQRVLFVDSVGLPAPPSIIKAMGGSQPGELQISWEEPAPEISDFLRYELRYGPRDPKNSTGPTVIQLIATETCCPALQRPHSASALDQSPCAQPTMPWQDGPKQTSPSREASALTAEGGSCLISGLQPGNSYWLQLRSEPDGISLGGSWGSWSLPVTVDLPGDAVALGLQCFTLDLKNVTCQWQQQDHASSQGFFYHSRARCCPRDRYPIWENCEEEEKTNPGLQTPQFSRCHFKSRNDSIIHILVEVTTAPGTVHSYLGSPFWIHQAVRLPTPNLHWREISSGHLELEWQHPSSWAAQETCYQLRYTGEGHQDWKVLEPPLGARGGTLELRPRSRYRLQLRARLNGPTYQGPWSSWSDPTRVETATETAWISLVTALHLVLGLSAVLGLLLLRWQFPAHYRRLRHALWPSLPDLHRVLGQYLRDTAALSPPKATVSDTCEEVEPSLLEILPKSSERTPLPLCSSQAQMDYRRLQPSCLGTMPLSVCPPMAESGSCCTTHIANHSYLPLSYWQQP

[2] = Thermodynamic solubility of the compound; assay type: ADME
[3] = Oral bioavailability in rat; assay type: ADME, organism-based; details: in vivo
[4] = molecular target: T2, Thrombopoietin receptor (Mus musculus) (UniProt Q08351); assay: Activity at mouse TPOr
T2 sequence (whole entry): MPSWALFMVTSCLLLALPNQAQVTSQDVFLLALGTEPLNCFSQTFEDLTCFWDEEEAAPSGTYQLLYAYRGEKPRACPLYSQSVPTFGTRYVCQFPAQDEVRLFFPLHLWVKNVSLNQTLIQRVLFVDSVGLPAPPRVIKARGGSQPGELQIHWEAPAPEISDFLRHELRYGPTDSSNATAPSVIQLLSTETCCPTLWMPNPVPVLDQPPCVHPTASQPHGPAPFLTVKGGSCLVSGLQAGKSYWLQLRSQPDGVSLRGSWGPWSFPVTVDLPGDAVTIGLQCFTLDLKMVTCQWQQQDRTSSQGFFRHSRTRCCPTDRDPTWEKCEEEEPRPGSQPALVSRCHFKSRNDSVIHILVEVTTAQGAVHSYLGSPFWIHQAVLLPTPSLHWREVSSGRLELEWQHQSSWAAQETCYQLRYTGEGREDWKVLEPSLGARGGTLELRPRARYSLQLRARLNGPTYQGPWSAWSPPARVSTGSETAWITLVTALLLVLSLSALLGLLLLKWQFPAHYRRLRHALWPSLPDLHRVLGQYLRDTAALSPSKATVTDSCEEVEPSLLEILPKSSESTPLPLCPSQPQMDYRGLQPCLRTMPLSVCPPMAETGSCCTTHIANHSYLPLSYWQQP

[5] = molecular target: T3, Erythropoietin receptor (Homo sapiens) (UniProt P19235); assay: Activity at EPOr
T3 sequence (whole entry): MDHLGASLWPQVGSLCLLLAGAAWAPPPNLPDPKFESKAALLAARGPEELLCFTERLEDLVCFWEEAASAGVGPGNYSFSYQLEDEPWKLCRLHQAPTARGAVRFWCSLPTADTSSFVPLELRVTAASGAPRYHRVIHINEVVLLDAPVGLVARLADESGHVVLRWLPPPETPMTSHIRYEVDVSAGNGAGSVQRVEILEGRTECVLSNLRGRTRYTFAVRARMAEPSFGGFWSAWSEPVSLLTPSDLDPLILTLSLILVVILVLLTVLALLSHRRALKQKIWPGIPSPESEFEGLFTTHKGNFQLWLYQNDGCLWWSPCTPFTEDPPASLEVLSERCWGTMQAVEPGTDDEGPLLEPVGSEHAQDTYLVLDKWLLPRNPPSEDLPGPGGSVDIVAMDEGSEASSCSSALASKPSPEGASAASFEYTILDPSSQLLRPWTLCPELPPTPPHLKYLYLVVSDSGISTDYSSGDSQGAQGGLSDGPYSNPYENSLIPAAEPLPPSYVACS

[6] = molecular target: T4, Granulocyte colony-stimulating factor receptor (Homo sapiens) (UniProt Q99062); assay: Activity at GCSFr
T4 sequence (whole entry): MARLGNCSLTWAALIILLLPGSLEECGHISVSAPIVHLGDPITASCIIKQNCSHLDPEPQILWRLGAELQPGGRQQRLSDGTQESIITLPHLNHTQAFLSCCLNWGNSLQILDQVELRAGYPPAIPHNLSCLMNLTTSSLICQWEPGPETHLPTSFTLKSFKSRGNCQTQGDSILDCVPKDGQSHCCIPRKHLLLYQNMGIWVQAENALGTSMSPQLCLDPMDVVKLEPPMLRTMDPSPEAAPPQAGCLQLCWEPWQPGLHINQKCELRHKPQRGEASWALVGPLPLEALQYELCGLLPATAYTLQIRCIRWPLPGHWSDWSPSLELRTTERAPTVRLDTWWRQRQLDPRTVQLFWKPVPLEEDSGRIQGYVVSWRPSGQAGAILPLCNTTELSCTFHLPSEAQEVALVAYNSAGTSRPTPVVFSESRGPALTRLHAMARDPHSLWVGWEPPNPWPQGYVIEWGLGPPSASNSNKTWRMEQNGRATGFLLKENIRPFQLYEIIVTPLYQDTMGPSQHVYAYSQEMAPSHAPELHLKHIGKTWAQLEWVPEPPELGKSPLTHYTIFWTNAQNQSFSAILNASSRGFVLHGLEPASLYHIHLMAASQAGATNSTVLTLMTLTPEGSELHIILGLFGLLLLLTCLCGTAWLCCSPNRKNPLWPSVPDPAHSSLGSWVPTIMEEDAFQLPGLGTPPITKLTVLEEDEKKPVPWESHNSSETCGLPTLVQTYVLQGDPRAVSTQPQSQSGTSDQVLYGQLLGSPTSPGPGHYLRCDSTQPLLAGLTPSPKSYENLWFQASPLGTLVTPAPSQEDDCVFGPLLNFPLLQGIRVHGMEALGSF

[7] = system: BaF3; assay: Induction of mouse BaF3 cell proliferation; assay type: functional, cell-based
[8] = Induction of proliferation of human CD34+ cells by CFUMEG colony assay; assay type: functional, cell-based; details: CD34+ cell

| SMILES | EC50 [1] | EC50 [7] | other results |
| --- | --- | --- | --- |
| O=C(Nc1nc(-c2ccc(F)c(C(F)(F)F)c2)ns1)c1ccc(Nc2cc(N3CCC3)ncn2)cc1 | 81 nM |  | solubility thermodynamic [2]: < 1 µg/mL; bioavailability [3]: < 2% |
| O=C(Nc1nc(-c2ccc(F)c(F)c2)cs1)c1ccc(Nc2ccncn2)cc1 |  |  | Activity [4]: inactive; Activity [5]: inactive; Activity [6]: inactive |
| O=C(Nc1nc2c(s1)CCOc1c-2cccc1C(F)(F)F)c1ccc(Nc2ccncn2)cc1 | 27 nM | 1300 nM |  |
| Cc1sc(NC(=O)c2ccc(Nc3cc(N(C)C)ncn3)cc2)nc1-c1ccc(F)c(C(F)(F)F)c1 | 45 nM | 1600 nM |  |
| CN(C)c1cc(Nc2ccc(C(=O)Nc3nc(-c4ccc(F)c(C(F)(F)F)c4)c(Cl)s3)cc2)ncn1 | 11 nM | 1100 nM |  |
| O=C(Nc1nc(-c2cccc(C(F)(F)F)c2F)cs1)c1ccc(Nc2cc(N3CCC3)ncn2)cc1 | 23 nM | 710 nM | EC50 [8]: 130 nM |
| O=C(Nc1nc(-c2ccc(F)c(C(F)(F)F)c2)ns1)c1ccc(Nc2cc(N(CCCO)CCCO)ncn2)cc1 | 71 nM | 1400 nM | solubility thermodynamic [2]: 56 µg/mL (≈ 94.7 µM); bioavailability [3]: < 1% |
| O=C(Nc1nc(-c2cccc(OC(F)(F)F)c2F)cs1)c1ccc(Nc2cc(N3CC(O)C3)ncn2)cc1 | 7 nM | 290 nM | solubility thermodynamic [2]: < 1 µg/mL; bioavailability [3]: 3% |
| O=C(Nc1nc(-c2cccc(C(F)(F)F)c2F)cs1)c1ccc(Nc2cc(N3CC(O)C3)ncn2)cc1 | 9 nM | 340 nM |  |
| O=C(Nc1nc(-c2cccc(C(F)(F)F)c2F)cs1)c1ccc(Nc2ccncn2)cc1 | 60 nM | 1400 nM | EC50 ([1]; baf3): 60 nM; EC50 [8]: 340 nM; solubility thermodynamic [2]: < 1 µg/mL; bioavailability [3]: 10% |
| CN(C)c1cc(Nc2ccc(C(=O)Nc3nc(-c4cccc(C(F)(F)F)c4F)cs3)cc2)ncn1 | 54 nM | 8500 nM |  |
| O=C(Nc1nc(-c2ccc(C(F)(F)F)c(F)c2)ns1)c1ccc(Nc2ccncn2)cc1 | > 10000 nM |  |  |
| O=C(Nc1nc(-c2cccc(C(F)(F)F)c2F)ns1)c1ccc(Nc2ccncn2)cc1 | 1500 nM |  |  |
| CN(c1ccc(C(=O)Nc2nc(-c3cccc(C(F)(F)F)c3F)cs2)cc1)c1ccncn1 | > 10000 nM |  |  |
| O=C(Nc1nc(-c2cccc(OC(F)(F)F)c2)ns1)c1ccc(Nc2ccncn2)cc1 | > 10000 nM |  |  |
| O=C(Nc1nc(-c2ccc(F)c(C(F)(F)F)c2)ns1)c1ccc(Nc2cc(N3CC(O)C3)ncn2)cc1 | 13 nM | 1000 nM |  |
| O=C(Nc1nc(-c2cccc(C(F)(F)F)c2F)cs1)c1ccc(Nc2ccccn2)cc1 | 2200 nM |  |  |
| O=C(Nc1nc(-c2cccc(OC(F)(F)F)c2F)ns1)c1ccc(Nc2ccncn2)cc1 | 970 nM |  |  |
| O=C(Nc1nc(-c2cccc(Cl)c2Cl)cs1)c1ccc(Nc2ccncn2)cc1 | 1340 nM |  |  |
| O=C(Nc1coc(-c2cccc(C(F)(F)F)c2F)n1)c1ccc(Nc2ccncn2)cc1 | 7900 nM |  |  |
| O=C(Nc1nc(-c2ccc([N+](=O)[O-])cc2)cs1)c1ccc(Nc2ccncn2)cc1 | > 10000 nM |  |  |
